Columns and labels:
[1] = test system: Influenza A virus; experiment: Antiviral activity against Influenza A virus containing Matrix protein 2 V27A mutant by plaque reduction assay; type: functional, organism-based
[2] = target: Matrix protein 2 (Influenza A virus, UniProt P06821, V27A); experiment: Inhibition of Influenza A virus Matrix protein 2 V27A mutant

Which IC50 [1] does the source give for CN1CCC2(C1)C1CC3CC(C1)CC2C3 (configuration not stated) [SPIROAMANTADINE] here?
The IC50 was 1000 nM.

And the IC50 [2]?
The IC50 was 300 nM.

— ChEMBL document CHEMBL2163212, “Antivirals targeting influenza A virus” (J Med Chem, 2012)
